Results from patent US6548499B1, “Substituted quinoxaline derivatives as interleukin-8 receptor antagonists” (Millennium Pharmaceuticals, Inc., priority 1998, dated 2003).

System: human neutrophils
Test: IL-8 chemotaxis assay
Assay type: cell-based
Details: Neutrophil, 0.5 h; freshly isolated human neutrophils, rhIL-8 as chemoattractant, 30 minutes at 37° C.
Description: Compounds of Formula I and II were evaluated for their effect on chemotaxis using methodology known in the art, e.g., Carr M. W., Roth S. J., Luther E., Rose S. S., and Springer T. A., “Monocyte chemoattractant protein 1 acts as a T-lymphocyte chemoattractant.” Proc. Natl. Acad Sci. USA, 1994;91:3652; Qin S., Larosa G., Campbell J. J. et al., “Expression of MCP-1 and IL-8 receptors on subset on T-cells, and correlation with transendothelial chemotactic potential,” Eur. J. Immu., 1996;26:640.
Briefly, freshly isolated human neutrophils were resuspended in chemotaxis buffer, which is made of one part of RPMI 1640 medium, one part of Medium 199, and 0.5% BSA. The cells were incubated with or without compounds for 5 minutes. Similarly, rhIL-8 was incubated in a separate plate, then transferred into lower chambers of chemotaxis plate. Neutrophils were added onto the top chamber. The plates were incubated at 37° C. for 30 minutes. The top chamber was then removed and the plate frozen at −80° C. for 30 minutes. After thawing, migrated cells were stained with Cytoquant Cell Proliferation Assay Kit (Molecular Probes No. C-7026) and quantitated by reading the plate on a fluorescent plate reader.

| IC50 [µM] | Molecule |
| --- | --- |
| 1.8 | CN(C)CCCNc1nc2cc(Cl)c(Cl)cc2nc1-c1ccco1 [Example 14, N′-(6,7-Dichloro-3-furan-2-yl-quinoxalin-2-yl)-N,N-dimethyl-propane-1,3-diamine] |
| 0.32 | CN(C)CCCNc1nc2cc(Cl)c(Cl)cc2nc1-c1cccs1 [Example 15, N′-(6,7-Dichloro-3-thiophen-2-yl-quinoxalin-2-yl)-N,N-dimethyl-propane-1,3-diamine] |
| 0.31 | CCN(CC)CCCCNc1nc2cc(Cl)c(Cl)cc2nc1-c1cc2ccccc2s1 [Example 25, N′(3-Benzo[b]thiophen-2-yl-6,7-dichloro-quinoxalin-2-yl)-N,N-4-diethyl-butane-1,4-diamine] |
| 0.4 | CCN(CC)CCCCNc1nc2cc(Cl)c(Cl)cc2nc1-c1ccc(C)s1 [Example 28, N′-[6,7-Dichloro-3-(5-methyl-thiophen-2-yl)quinoxalin-2-yl]-N,N-diethyl-butane-1,4-diamine] |
| 0.08 | CCN(CC)CCCCNc1nc2cc(Cl)c(Cl)cc2nc1-c1ccc(-c2cccs2)s1 [Example 34, N′-(3-[2,2′]Bithiophenyl-5-yl-6,7-dichloro-quinoxalin-2-yl)-N,N-diethyl-butane-1,4-diamine] |

Same assay, conditions: freshly isolated human neutrophils, rhIL-8 as chemoattractant, 30 minutes at 37° C.

| Molecule | IC50 [µM] |
| --- | --- |
| 6-Chloro-N-[4-(dimethylamino)cyclohexyl]-3-(2-pyridinyl)-2-quinoxalinamine and 7-Chloro-N-[4-(dimethylamino)cyclohexyl]-3-(2-pyridinyl)-2-quinoxalinamine, Dihydrochloride, Hydrate [Example 1] | 0.89 |

System: human neutrophils
Test: IL-8 calcium flux assay
Assay type: cell-based
Details: @ 11 μM; human neutrophils stimulated with human IL-8
Description: Compounds of Formula I and II were evaluated for their effect on calcium flux using methodology known in the art, e.g., Neote K., DiGregorio D., Mak J. Y., Horuk R., and Schall T. J., “Molecular cloning, functional expression, and signaling characteristics of a C—C chemokine receptor,” Cell, 1993;72:415.
Briefly, human neutrophils were incubated with the fluorescence dye FLUO-3 for 1 hour. The cells were washed after this loading period, resuspended in HANKs buffer, and loaded into a 96-well plate. Compound was added to each well. After a 2-minute incubation period, the cells were stimulated with human IL-8 and the calcium flux response recorded and quantified.

| Molecule | IL-8 Ca+2 Flux % Inhibition (μM) [% @ 11] |
| --- | --- |
| 6-Chloro-N-[4-(dimethylamino)cyclohexyl]-3-(2-pyridinyl)-2-quinoxalinamine and 7-Chloro-N-[4-(dimethylamino)cyclohexyl]-3-(2-pyridinyl)-2-quinoxalinamine, Dihydrochloride, Hydrate [Example 1] | 34 |

System: not given
Test: not given
Details: not given

| melting point | Molecule |
| --- | --- |
| 180 to 182 °C | CN(C)C1CCC(Nc2nc3cc(Cl)c(Cl)cc3nc2-c2ccccn2)CC1.Cl (stereo not drawn) |
| 280 to 282 °C (dec.) | Cl.N[C@H]1CC[C@H](Nc2nc3cc(Cl)c(Cl)cc3nc2-c2ccccn2)CC1 |
| 275 to 277 °C (dec.) | Cl.Clc1cc2nc(-c3ccccn3)c(N3CCC(N4CCCCC4)CC3)nc2cc1Cl |
| 63 to 65 °C | c1ccc(-c2nc3ccccc3nc2NC2CN3CCC2CC3)nc1 (stereo not drawn) |
| 145 to 147 °C | CCN(CC)CCCCNc1nc2cc(Cl)c(Cl)cc2nc1-c1cc2ccccc2[nH]1.Cl |
| 98 to 100 °C | CCN(CC)CCCCNc1nc2cc(Cl)c(Cl)cc2nc1-c1ccc(Cl)s1.Cl |
| 165 to 167 °C | CCCc1ccc(-c2nc3cc(Cl)c(Cl)cc3nc2NCCCCN(CC)CC)s1.Cl |
| 220 °C | CCN(CC)CCCCNc1nc2cc(Cl)c(Cl)cc2nc1-c1cc2ccccc2o1.Cl |
| 134 to 136 °C | CCN(CC)CCCCNc1nc2cc(Cl)c(Cl)cc2nc1-c1cccc2c1sc1ccccc12.Cl |
| 85 to 86 °C | c1ccc(-c2nc3ccccc3nc2NCCCn2ccnc2)nc1 [Example 3, N-[3-(1H-Imidazol-1-yl)propyl]-3-(2-pyridinyl)-2-quinoxalinamine] |
| 186 to 188 °C | CN1CCCC1CCNc1nc2ccccc2nc1-c1ccccn1 (stereo not drawn) [Example 4, N-[2-(1-Methyl-2-pyrrolidinyl)ethyl]-3-(2-pyridinyl)-2-quinoxalinamine] |
| 205 to 206 °C | c1ccc(-c2nc3ccccc3nc2Nc2ccc(N3CCOCC3)cc2)nc1 [Example 6, N-[4-(4-Morpholinyl)phenyl]-3-(2-pyridinyl)-2-quinoxalinamine] |
| 142 to 144 °C | c1ccc(-c2nc3ccccc3nc2NCc2ccncc2)nc1 [Example 7, N-(4-Pyridinylmethyl)-3-(2-pyridinyl)-2-quinoxalinamine] |
| 169 to 170 °C | CN(C)c1ccc(Nc2nc3ccccc3nc2-c2ccccn2)cc1 [Example 8, N-[4-(Dimethylamino)phenyl]-3-(2-pyridinyl)-2-quinoxalinamine] |
| 165 to 166 °C | CC(=O)N(C)c1ccc(Nc2nc3ccccc3nc2-c2ccccn2)cc1 [Example 9, N-Methyl-N-[4-[[3-(2-pyridinyl)-2-quinoxalinyl]amino]phenyl]-acetamide] |
| 250 to 252 °C (dec.) | CCN(CC)Cc1ccc(Nc2nc3cc(Cl)c(Cl)cc3nc2-c2ccccn2)cc1 [Example 13, (6,7-Dichloro-3-pyridin-2-yl-quinoxalin-2-yl)-(4-diethylaminomethyl-phenyl)-amine] |
| 175 to 177 °C | CN(C)CCCCNc1nc2cc(F)c(F)cc2nc1-c1cccs1 [Example 17, N′-(6,7-Difluoro-3-thiophen-2-yl-quinoxalin-2-yl)-N,N-dimethyl-butane-1,4-diamine] |
